Earlier results on one compound are cited in patent US11260028B2, “Nanosome formulations of aprepitant and methods and applications thereof” (ForDoz Pharma Corp., priority 2017, dated 2022).

Each structure is given as a SMILES string.

With `C[C@@H](O[C@H]1OCCN(Cc2n[nH]c(=O)[nH]2)[C@H]1c1ccc(F)cc1)c1cc(C(F)(F)F)cc(C(F)(F)F)c1` [aprepitant, 5-[[(2R,3S)-2-[(1R)-1-[3,5-bis(trifluoromethyl)phenyl]ethoxy]-3-(4-fluorophenyl)-4-morpholinyl]methyl]-1,2-dihydro-3H-1,2,4-triazol-3-one], the water solubility entry is on record as “poor”.
